{"source": "patent US5603963A", "about": "“Method for the treatment of retroviral diseases such as acquired immune deficiency syndrome utilizing (pseudo)halogen complexes of gold(1)” (priority 1994, dated 1997)", "key": {"AIDS": {"test_system": "AIDS", "settings": "cited from earlier work"}, "HIV": {"test_system": "HIV", "settings": "CEM cells; concentrations in the 6ppm range; cited from earlier work"}, "[1]": {"test_system": "HIV reverse transcriptase", "settings": "in vitro; cited from earlier work"}, "cells": {"test_system": "cells", "settings": "cited from earlier work"}, "[2]": {"parameters": "species or system patients", "settings": "human, in vivo", "text": "A powerful means to attack the AIDS virus (HIV) would be to find a specific inhibitor of the viral reverse transcriptase. If this enzyme cannot function, viral replication cannot take place. The significant aspect of the viral life cycle which must be considered is that the viral replication takes place intracellularly. Thus, agents which may work in a test tube to inhibit the enzyme activity will have no effect on the virus itself unless the agent is capable of entering cells and developing an effective intracellular concentration."}}, "note": "Read-outs that look alike come from different tables or passages of the source.", "data": [{"compound": "Cc1cn([C@H]2C[C@H](N=[N+]=[N-])[C@@H](CO)O2)c(=O)[nH]c1=O", "note": "[AZT, azidothymidine]", "values": [{"measurement": "side effects", "setting": "AIDS; AIDS", "result": "significant side effects"}]}, {"compound": "O=c1[nH]cnc2c1ncn2[C@H]1CC[C@@H](CO)O1", "note": "[DDI, dideoxyinosine]", "values": [{"measurement": "side effects", "setting": "AIDS; in vivo", "result": "significant side effects"}]}, {"compound": "bis(thioglucose)gold(I)", "values": [{"measurement": "inhibition of the infectivity of HIV", "setting": "HIV", "result": "inhibit the infectivity of HIV"}, {"measurement": "inhibition of HIV reverse transcriptase", "setting": "[1]", "result": "does inhibit HIV reverse transcriptase"}]}, {"compound": "gold(I) thioglucose [Solganol]", "values": [{"measurement": "ability to enter cells", "setting": "cells", "result": "inherently unable to enter cells"}, {"measurement": "levels of gold inside cells (in words)", "setting": "[2]", "result": "well below the levels required to inhibit the enzyme in vitro"}, {"measurement": "levels of gold inside cells relative to amount found in blood", "setting": "[2]", "result": "less than 5%"}, {"measurement": "inhibition of HIV reverse transcriptase", "setting": "[1]", "result": "inhibit HIV reverse transcriptase"}]}, {"compound": "sodium gold(I) thiomalate [Myochrysine]", "values": [{"measurement": "total gold in Cell lysate", "setting": "red blood cells", "result": 6, "unit": "%"}, {"measurement": "total gold in Membranes", "setting": "red blood cells", "result": 10, "unit": "%"}, {"measurement": "total gold in Supernatant", "setting": "red blood cells", "result": 84, "unit": "%"}, {"measurement": "gold remaining in the incubation medium", "setting": "whole blood", "result": "~90", "unit": "%"}, {"measurement": "total gold found in the cell lysate", "setting": "whole blood", "result": "about 5%"}, {"measurement": "total gold in Cell lysate", "setting": "whole blood", "result": 4, "unit": "%"}, {"measurement": "total gold in Membranes", "setting": "whole blood", "result": 6, "unit": "%"}, {"measurement": "total gold in Supernatant", "setting": "whole blood", "result": 90, "unit": "%"}]}]}
